Data from patent publication US9623062B2, “Anti-ageing activity of camphor in fibroblast cell line” (Jeju National University Industryacademic Cooperation …, priority 2014, dated 2017).

Experiments:
fibroblasts = test: ROS production by DCFH-DA flow cytometry in fibroblasts; assay type: cell-based, human; conditions: for increase of ROS production compared to non-treated cells: fibroblasts, 24 hours after treatment, FIG. 4A
Protocol: To analyze the reactive oxygen species (ROS), the cells were seeded in 60 mm culture dishes at a density of 2×10^4 cells/mL, and then treated with 10% chamomile hydrosol for 0, 6, 12, and 24 hours. The cells were stained with 2′-7′-dichlorodihydrofluorescein diacetate (DCFH-DA) for 15 minutes, collected in a 15 mL tube, and then washed with PBS. The cells were re-suspended in 500 μl of PBS, and measured for a level of ROS. For the cell cycle analysis, the treated cells were harvested and fixed overnight in 70% ethanol at 4° C. After 24 hours, the cells were rehydrated in 2 mM EDTA-BPS with RNase A (25 ng/ml), and stained with PI (40 μg/ml). All the analyses were performed using a FACS Caliber flow cytometer (BD Biosciences), and each sample were analyzed by counting 10,000 cells.

[1] = tested on: fibroblast cells (SA-β-gal); test: Senescence-associated β-galactosidase activity in fibroblasts; assay type: cell-based, human
Protocol: Fibroblast cells were incubated in 6-well plate at a density of 1×10^4 cells/well. Then the culture supernatants were removed and the cells were treated 72 h with only camphor (260 μM) or H2O2 600 μM and 800 μM or co-treated camphor and H2O2 in fresh media; ethanol containing media and media only were used as negative controls. In some experiments, H2O2 was pretreated on fibroblast cells 72 h and replaced with or without camphor treatment (260 μM) 48 h. After treatment, cells were washed twice with PBS and fixed 10 minutes in 4% formaldehyde. Then, this was followed by washing 3 times with wash solution (100 mM Na2HPO4 set to pH 6 with 100 mM Citric Acid). Cells was incubated overnight at 37° C. in freshly made staining solution (5 mM K3Fe(CN)6, 5 mM K4Fe(CN)6, 2 mM MgCl2, 150 mM NaCl, 40 mM Na2HPO4, 1 mg/mL bromo-chloro-indolyl-galactopyranoside (X-Gal), set to pH 6 with 100 mM citric acid). Next day, cells was washed the staining solution with PBS and taken picture by microscope and β-galactosidase-positive cell number ratio was calculated.

[2] = tested on: Primary dermal fibroblast cells; test: MTT cell viability of fibroblasts; assay type: cell-based, human
Protocol: Fresh human foreskin specimens were obtained from 8 donors aged from 6 to 12 years, who received a routine circumcision procedure of Jeju National University Hospital, Korea. After being digested with 0.1% […] (Worthington Biochemical Corporation, Lakewood, N.J.) at 4° C. overnight, the epidermal layers were removed, and the remaining dermal parts were further digested with 0.1% collagenase I (Worthington) at 37° C. for another 4 h. The digested cells were then passed through a […] cell strainer (BD Biosciences, Mississauga, ON, Canada), centrifuged, and resuspended in high-glucose DMEM (Gibco, Invitrogen, Carlsbad, Calif.), supplemented with 10% FBS (Gibco, Invitrogen, Carlsbad, Calif.), 100 U/ml penicillin, and 100 μg/ml streptomycin (all from PAA Laboratories, Linz, Austria). Cells were seeded on tissue culture plates at 1×10^3 cells/cm2, and maintained at 37° C. with 5% CO2. After 24 h, the plates were washed with PBS to remove residual non-adherent cells. The resulting adherent cells were grown to confluence within 7 days. Primary dermal fibroblast (2×10^4 cells/ml) cells were plated in 96-well plates in 200 μl of medium containing 10% FBS. After 24 h, the cells were treated with different concentrations of chamomile hydrosol or camphor. […] Cell viability was determined from the absorbance at 570 nm, measured using a Sunrise microplate reader (Tecan, Salzburg, Austria). […]

[3] = tested on: PI3K/AKT and MAPK signaling cascades; test: Western blot of PI3K/AKT/ERK/4E-BP1 phosphorylation in fibroblasts; assay type: cell-based, human
Protocol: (§1) After 0, 6, 12, 24 h treatment, cells were collected and lysed in lysis buffer (100 mM Tris-Hcl [pH 8], 250 mM NaCl, 0.5% Nonidet P-40, and 1× protease inhibitor cocktail) and sonicated few times then kept on ice for 30 min. The cell lysates were centrifuged at 13,000 rpm for 30 min at 4° C. The supernatant were collected and determined the concentration by BCA™ Protein assay (Pierce, Rockford, Ill.). For detecting MMP 1 and collagen I, and collagen III, we collected the media and centrifuging 400×g for 1 h at 4° C. by using Amicon Ultra 10K and determined the concentration by Bradford assay. Aliquots of the lysated were separated by 10-15% SDS-PAGE, and transferred to PVDF membranes using a glycine transfer buffer (192 mM glycine, 25 mM Tris-HCl [pH 8.8], and 20% [v/v] methanol). After blocking with Skim milk 5% overnight at 4° C., the membrane were incubated with primary antibodies for 1 h RT or overnight at 4° C. and then for 1 h with secondary antibodies. Primary antibodies were diluted at ratio 1:1000 whereas the anti-β-actin primary and secondary antibodies (horseradish peroxidase-conjugated goat anti-mouse IgG) (Vector Laboratories, Burlingame, Calif.) were diluted at ratio 1:10,000. Protein bands were detected using the WEST-ZOL® plus Western Blot Detection System (iNtRON, Gyeonggi-do, Korea).

Fibroblast cells = test: Total collagen assay (Sircol); assay type: cell-based, human; conditions: cells treated with camphor vs non-treated control, FIG. 5C
Protocol: Total collagen was quantified in culture media using the Sircol Soluble Collagen Assay kit (Biocolor, Newtownabbey, Northern Ireland) by quantitative dye-binding method, according to the manufacturer's instruction. Fibroblast cells were seeded in 6-well culture plates at density 2×10^5 cells/well with 2 ml/well media with or without camphor (260 μM) and incubated for different time points (6 h, 12 h, 24 h). After treatment, 200 μl sample medium of each group was transferred to a 1.5 ml centrifuge tube and 1 ml Sircol dye reagent was added into each tube. The mixed contents were incubated at room temperature for 30 min. Then the tubes were centrifuged at 10000 g for 10 minutes. The supernatants were drained off and discarded. The remaining pellets were mixed with 1 ml Alkali reagent and gently mixed until the pellets dissolved completely. The solutions were transferred to a 96-well plate and read absorbance at 540 nm. A standard curve was made simultaneously by standard collagen stock solution (0.5 mg/m1).

[4] = molecular target: T1, porcine pancreatic elastase (PPE (Type IV)) (Sus scrofa, UniProt P00772); test: Elastase assay; assay type: biochemical; conditions: camphor 0-3200 μM, n-Suc-(Ala)3-nitroanilide substrate, FIG. 5B
T1 construct: purchased Sigma
T1 sequence (P00772 27-266): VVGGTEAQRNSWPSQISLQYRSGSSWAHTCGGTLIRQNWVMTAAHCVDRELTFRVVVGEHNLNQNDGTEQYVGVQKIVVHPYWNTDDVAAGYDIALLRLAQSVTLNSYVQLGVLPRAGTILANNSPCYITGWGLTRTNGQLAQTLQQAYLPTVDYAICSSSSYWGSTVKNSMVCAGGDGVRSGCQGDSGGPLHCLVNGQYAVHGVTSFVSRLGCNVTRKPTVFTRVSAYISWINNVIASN
Protocol: The inhibition of different concentrations of camphor on porcine pancreatic elastase (PPE (Type IV), Sigma) activity was examined using n-Suc-(Ala)3-nitroanilide as the substrate, and the release of nitroaniline was measured at 410 nm. The reaction was carried out in a 200 mM Tris-HCl buffer (pH 8.0) containing 0.8 mM N-Suc-(Ala)3-nitroanilide and 5 μg/mL elastase. Different concentrations of camphor (0-3200 μM) were added to the reaction mixture to reach a final volume of 320 μl, and elastase inhibition was assessed in 96 well-plate reader at 25° C. The reaction mixture was pre-incubated for 10 minutes before addition of the substrate. The change in absorbance was measured at 410 nm using a 96-well reader. The percentage of elastase activities was calculated by the following equation: Enzyme activity (%)=100−[(B−A)/A]×100]
wherein A represents an absorbance at 410 nm without camphor, and B represents an absorbance at 410 nm with camphor.

[5] = tested on: collagen types I, III and IV and collagenase MMP1; test: Western blot of collagen types and MMP1; assay type: cell-based, human; conditions: camphor treatment
Protocol: as §1

| SMILES | increase of ROS production compared to non-treated cells (fibroblasts) | SA-β-gal-positive cells ([1]; H2O2 alone vs control, FIG. 5A) | cell viabilities enhanced by camphor when ROS scavenged by NAC ([2]; NAC pre-treatment, then camphor, FIG. 4C) | phosphorylation of PI3K, AKT, 4EBP1, and ERK increased by camphor, after NAC pre-treatment ([3]; NAC pre-treatment plus camphor, FIG. 4D) | camphor-induced ROS production after NAC pre-treatment (fibroblasts; fibroblasts pre-treated with NAC, then camphor 24 hours, FIG. 4B) | fibroblast viability ([2]; camphor from 32.25 μM to 260 μM, FIG. 3A) | total volume of collagen (Fibroblast cells) | phosphorylated forms of 4E-BP1 ([3]; fibroblasts treated with camphor, FIG. 3B) | phosphorylation of PI3K, AKT, and ERK ([3]; fibroblasts treated with camphor, time-dependent, FIG. 3B) | reversal of cellular senescence ([1]; cells pre-treated with H2O2 at 800 μM, then camphor) | SA-β-gal-positive cells ([1]; co-treatment of camphor with 600 and 800 μM H2O2, 72 h) | number of senescent cells ([1]; pre-treated with 600 μM H2O2 for 3 days, then camphor for 2 days) | elastase activity inhibition [4] | expression of MMP1 [5] | volume of collagen types III and IV ([5]; FIG. 5D) |
| --- | --- | --- | --- | --- | --- | --- | --- | --- | --- | --- | --- | --- | --- | --- | --- |
| OO [H2O2, reference compound] | 53% | dramatically induced SA-β-gal-positive cells |  |  |  |  |  |  |  |  |  |  |  |  |  |
| CC(=O)N[C@@H](CS)C(=O)O [NAC, N-acetyl-L-cysteine, reference compound] |  |  | decreased | reduced the phosphorylation | decreased the induced ROS production |  |  |  |  |  |  |  |  |  |  |
| CC1(C)C2CC[C@@]1(C)C(=O)C2 [camphor, (1R)-1,7,7-Trimethylbicyclo[2.2.1]heptan-2-one] | approximately 13% |  |  |  |  | increased the fibroblast viability | increased | observed | increased the phosphorylation | did not significantly reverse the cellular senescence | reduced the SA-β-gal-positive cells | significantly decreased | inhibited the elastase activity in a concentration-dependent manner | no change | increased |
